Literature values, collected in patent publication US11433058B2, “Non-pulsatile prolonged-release betahistine oral solid compositions” (INTAS PHARMACEUTICALS LTD., priority 2017, dated 2022).
Structures can show the parent of a compound that is named as a salt.

Legend:
[1] = oral; immediate release tablet or orodispersible tablet (Betaserc SmPC)
[2] = per WO2014001267

Row | Compound | absolute bioavailability [1] | water solubility [2] [mg/mL]
1 | O=C(O)Cc1ccccn1 [Example 2-PAA, 2-pyridylacetic acid] | about 99% | 
2 | CNCCc1ccccn1 [Betahistine dihydrochloride] |  | 49.3
